Assay results published in patent US8524899B2, “Alternative heterocycles for DNA recognition” (California Institute of Technology, priority 2003, dated 2013).
One block for each compound: values may come before it.

Key:
Type in all cases: binding
[1] = tested on: 32P-3′-labeled EcoRI/PvuII restriction fragment of plasmid pDR1 (sites 5′-TGTCTA-3′, 5′-TGTTTA-3′, 5′-TGTATA-3′, 5′-TGTGTA-3′); assay: Quantitative DNase I footprint titration on pDR1 restriction fragment
Protocol: FIG. 4 illustrates the equilibrium association constants Ka[M^−1] for Polyamide Oligomers A-C, N, Q, and P. The reported association constants are the average values obtained from three DNase I footprint titration experiments, with the standard deviation for each data set indicated in the experiments. Assays were carried out at 22° C. at pH 7.0 in the presence of 10 mM Tris-HCl, 10 mM KCl, 10 mM MgCl2, and 5 mM CaCl2 with an equilibration time of 12 h. Specificities are give in brackets under the Ka values and calculated as Ka (match)/Ka (mismatch).
To examine whether an imidazo[4,5-b]pyridine unit Ip can replace a five-membered imidazole ring Im within an eight-ring hairpin polyamide regarding DNA binding affinity and specificity, polyamide oligomer A and its related all five-membered ring hairpin oligomer N were evaluated by DNase I footprint titrations under identical conditions. Quantitative DNase I footprint titration experiments (10 mM Tris-HCl, 10 mM KCl, 10 mM MgCl2, 5 mM CaCl2, pH 7.0, 22° C., equilibration time: 12 h) were performed on a ^32P-3′-labeled EcoRI/PvuII restriction fragment of plasmid pDR1 0 (FIG. 2). This DNA fragment contains four 6-base pair binding sites which differ at one position, 5′-TGTCTA-3′,5′-TGTTTA-3′,5′-TGTATA-3′, and 5′-TGTGTA-3′. The latter one was regarded as the possible match site having a G•C base pair under the Ip/Py or Im/Py pair, respectively.
Construction of plasmid DNA. The plasmid pDR1 was constructed by hybridization of the two oligonucleotides 5′-GATCAGGCTGTC-[…]-GCTGCTGTTTATGGACG-GCTGCTGTATATGGACGG-CTGGGCGA-3′ (SEQ ID NO:1) and 5′-AGCTTCGC-[…]-[…]-3′ (SEQ ID NO:2) followed by ligation into the BamHI/HinDIII restriction fragment of pUC19 using T4 DNA ligase. The resultant plasmid was then used to transform E. coli XL-1 Blue Supercompetent cells. Ampicillin-resistant white colonies were selected from 25 mL Luria-Bertani agar plates containing […] ampicillin, treated with XGAL and IPTG solutions and grown overnight at 37° C. Cells were harvested after overnight growth at 37° C. Large-scale plasmid purification was performed with Qiagen, purification kits. The presence of the desired insert was determined by dideoxy sequencing. DNA concentrations were determined at 260 nm using the relationship 1 OD unit) 50 μg/mL duplex DNA.
Preparation of 3′-End-Labeled DNA Restriction Fragments. The plasmid pDR1 was linearized with EcoRI and PVuII and treated with the Klenow fragment of DNA […], [R-^32P]-dATP, and [R-^32P]-TTP for 3′-end labeling. The labeled 3′-fragment was purified on a 7% nondenaturing polyacrylamide gel (5% cross-linkage) and the desired 284 base pair band isolated after visualization by autoradiography. The DNA was precipitated with 2-propanol, the pellet washed, lyophilized, and resuspended in RNase-free H2O. Chemical sequencing reactions were performed according to published protocols. (Troschütz, R.; Lückel, A. Arch. Pharm., 325, 617-619, 1992.)
DNase I Footprinting. All reactions were carried out in a volume of 400 μL according to published procedures. Quantitation by storage phosphor autoradiography and determination of equilibrium association constants were as previously described. (Trauger, J. W.; Dervan, P. B. Methods Enzymol., 340, 450-466, 2001.)

[2] = tested on: EcoRI/PvuII restriction fragment of plasmid pPWF2 (5′-TGRACA-3′); assay: Quantitative DNase I footprint titration, R•S position, plasmid pPWF2
Description: (§1) FIG. 9 illustrates the equilibrium association constants Ka[M^−1] and specificities for polyamide oligomers D-F, R, S, and V on plasmids pPWF2 and pCAB1 (R•S position).
(§2) When replacing PyPy, PyIm, and PyHp dimers with BiPy (as in oligomer D), BiIm (as in oligomer E), and BiHp constructs (as in oligomer F), respectively, the question arises whether a) the benzimidazole ring is capable of cooperating with the imidazole ring on the opposite strand of the hairpin polyamide to specifically recognize a C•G base pair according to the binding model and the general pairing rules, and b) whether the steric and electronic peculiarities of the benzimidazole ring disturb the binding ability of the adjacent heterocycle. In order to address this question for the given polyamide design, the recognition behavior of the benzimidazole-containing polyamides was probed in two of the six base pair positions R•S and X•Y of the recognition sequence (5′-TGRACA-3′ and 5′-TGGXCA-3′ for oligomers D and F; 5′-TGRCAA-3′ and 5′-TGGXAA-3′ for oligomer E; FIG. 6) and compared with the DNA-binding ability of the related all five-membered oligomers R, S, and V at the same recognition sequences.
(§3) Evaluation of the DNA recognition properties of the new ligands oligomers D, E, and F at the imidazole/benzimidazole position (referred to as R•S position) should reveal the sequence preference of the benzimidazole ring. The binding properties at the neighboring ring position (referred to as X•Y position) were expected to disclose whether the recognition capabilities of the adjacent internal five-membered ring are disturbed by the benzimidazole moiety. To examine the consequences of the ring replacement for DNA binding in terms of affinity and specificity, the benzimidazole-containing hairpin polyamides oligomers D, E, and F were evaluated by quantitative DNase I footprint titrations and the results compared to those from related oligomers R, S, and V, which were investigated under identical conditions. Quantitative DNase I footprint titration experiments (10 mm Tris-HCl, 10 mm KCl, 10 mm MgCl2, 5 mm CaCl2, pH 7.0, 22° C., equilibration time: 12 h) were performed on ^32P-3′-labeled EcoRI/PvuII restriction fragments of plasmids pPWF2 and pCAB1 (to probe the R•S position, FIG. 7); and pAU2 and pCAB2 (to probe the X•Y position, FIG. 8). Equilibrium association constants (Ka) for the polyamide oligomers at the binding sites of interest were determined as described above in Example 3.

[3] = tested on: EcoRI/PvuII restriction fragment of plasmid pAU2 (5′-TGGXCA-3′); assay: Quantitative DNase I footprint titration, X•Y position, plasmid pAU2; conditions: match and mismatch sites
Description: FIG. 10 illustrates the equilibrium association constants Ka[M^−1] and specificities for polyamide oligomers D-F, R, S, and V on plasmids pAU2 and pCAB2 (X•Y position). […]
as §3, with “The binding properties at the neighboring ring position (referred to as X•Y position) were expected to disclose whether the recognition capabilities of the adjacent internal five-membered ring are disturbed by the benzimidazole moiety.” left out

[4] = tested on: EcoRI/PvuII restriction fragment of plasmid pCAB1 (5′-TGRCAA-3′); assay: Quantitative DNase I footprint titration, R•S position, plasmid pCAB1
Description: as §1, §2, §3

[5] = tested on: EcoRI/PvuII restriction fragment of plasmid pCAB2 (5′-TGGXAA-3′); assay: Quantitative DNase I footprint titration, X•Y position, plasmid pCAB2
Description: FIG. 10 illustrates the equilibrium association constants Ka[M^−1] and specificities for polyamide oligomers D-F, R, S, and V on plasmids pAU2 and pCAB2 (X•Y position).
When replacing PyPy, PyIm, and PyHp dimers with BiPy (as in oligomer D), BiIm (as in oligomer E), and BiHp constructs (as in oligomer F), respectively, the question arises whether a) the benzimidazole ring is capable of cooperating with the imidazole ring on the opposite strand of the hairpin polyamide to specifically recognize a C•G base pair according to the binding model and the general pairing rules, and b) whether the steric and electronic peculiarities of the benzimidazole ring disturb the binding ability of the adjacent heterocycle. […]
as §3, with “The binding properties at the neighboring ring position (referred to as X•Y position) were expected to disclose whether the recognition capabilities of the adjacent internal five-membered ring are disturbed by the benzimidazole moiety.” left out

[6] = tested on: 5′-TGGXCA-3′ (X=A, T, G, C); assay: DNase I footprint titration, single Hz/Py, Py/Hz, Hz/Bi, Bi/Hz pair position; conditions: for preference for T•A over A•T: Hz/Py (G), Hz/Bi (I) pair; for preference for A•T over T•A: Py/Hz (J), Bi/Hz (L) pair
Protocol: FIG. 15 is a table showing the association equilibrium constant Ka[M^−1] for polyamide oligomers G and J. The reported association constants are the average values obtained from three DNase I footprint titration experiments, with the standard deviation given in parenthesis. Assays were carried out at 22° C. at pH 7.0 in the presence of 10 mM Tris-HCl, 10 mM KCl, 10 mM MgCl2, and 5 mM CaCl2 at pH 7.0.
FIG. 19 is a a table showing the association equilibrium constant Ka[M^−1] for polyamide oligomers I and L. The reported association constants are the average values obtained from three DNase I footprint titration experiments, with the standard deviation given in parenthesis. Assays were carried out at 22° C. at pH 7.0 in the presence of 10 mM Tris-HCl, 10 mM KCl, 10 mM MgCl2, and 5 mM CaCl2 at pH 7.0.
For polyamides Im-Im-Hz-Py-γ-Im-Py-Py-Py-β-Dp (oligomer G) and Im-Im-Py-Py-γ-Im-Hz-Py-Py-β-Dp (oligomer J), the DNA-sequence specificity at a single ring-pairing position (bolded in the sequences listed above) was determined by varying a single DNA base pair within the parent-sequence context, 5′-TGGXCA-3′, to all four Watson-Crick base pairs (X=A, T, G, C) and comparing the relative affinities of the resulting complexes (FIG. 14). The variable base-pair position was installed opposite the novel Hz/Py and Py/Hz pairs, designed to target T•A and A•T respectively. Equilibrium association constants (Ka) for polyamide oligomers containing Py/Py, Hp/Py and Py/Hp pairs have been reported and are included for comparison with values presented here (FIG. 15).
The variable base-pair position was installed opposite the novel Hz/Bi and Bi/Hz pairs, designed to target T•A and A•T respectively.
Footprinting Experiments.—Plasmids pDHN1 and pDEH10 were constructed and 5′-radiolabeled as previously described. (Nguyen, D. H. et al., Bioorg. Med. Chem., 9: 7-17, 2001; Melander, C. et al., Chem. Eur. J., 24: 4487-4497, 2000.) DNase I footprint titrations were performed according to standard protocols. (Trauger, J. W. et al., Methods Enzymol., 340: 450-466, 2001.)

- specificity of match site versus A•T and T•A sites ([1]; G•C match vs A•T and T•A sites): similar
- preference for match site 5′-TGTGTA-3′ versus the C•G site ([1]; G•C match vs C•G site): slight decrease
- higher affinity than related all five-membered ring oligomer ([1]; site 5′-TGTGTA-3′): 5 fold
- equilibrium association constant Ka ([1]; site 5′-TGTGTA-3′ (G•C), pH 7.0, 22° C., equilibration 12 h): 1.2e+10 M⁻¹
Structure (SMILES): CNC(=O)c1cc(NC(=O)c2cc(NC(=O)c3cc(NC(=O)c4cc(NC(=O)[C@H](N)CCNC(=O)c5cc(NC(=O)c6ccc7nc(-c8cc(NC(=O)c9nccn9C)cn8C)[nH]c7n6)cn5C)cn4C)cn3C)cn2C)cn1C [A]

- binding site preference, affinity and specificity compared with related all five-membered ring oligomer ([1]; B vs Q, C vs P): same binding site preference
Structure (SMILES): CNC(=O)c1cc(NC(=O)c2cc(NC(=O)c3cc(NC(=O)c4cc(NC(=O)[C@H](N)CCNC(=O)c5cc(NC(=O)c6ccc7nc(-c8cc(NC(=O)c9nccn9C)cn8C)[nH]c7c6)cn5C)cn4C)cn3C)cn2C)cn1C [C]

- match site Ka, R•S position ([2]; 5′-TGRACA-3′ match site, pH 7.0, 22° C., 12 h): 4.9e+10 M⁻¹
- match site affinity compared with related all five-membered oligomer, R•S position ([2]; D vs R, F vs V): comparable
- single base pair mismatch specificities compared with related oligomer, R•S position ([2]; D vs R, F vs V): lower by roughly one order of magnitude
- binding affinities and specificities compared with related oligomers R, V, X•Y position [3]: same order of magnitude
Structure (SMILES): CNC(=O)c1cc(NC(=O)c2ccc3nc(-c4cc(NC(=O)c5nc(NC(=O)[C@H](N)CCNC(=O)c6cc(NC(=O)c7cc(NC(=O)c8nc(NC(=O)c9nccn9C)cn8C)cn7C)cn6C)cn5C)cn4C)[nH]c3c2)cn1C [D]

- match site Ka, R•S position ([4]; 5′-TGRCAA-3′ match site, pH 7.0, 22° C., 12 h): 3.1e+10 M⁻¹
- match site affinity compared with related all five-membered oligomer, R•S position ([4]; E vs S): six to seven-fold higher
- match site/mismatch site discrimination compared with related oligomer, R•S position ([4]; R=A): comparable
- match site/mismatch site discrimination compared with related oligomer, R•S position ([4]; R=T or C): at least ten-fold lower
- match site Ka, X•Y position ([5]; 5′-TGGXAA-3′ match site, pH 7.0, 22° C., 12 h): 1.9e+10 M⁻¹
- match site affinity compared with related oligomer S, X•Y position ([5]; E vs S): six-fold higher
- single base pair mismatch specificities compared with related oligomer S, X•Y position ([5]; E vs S): mildly diminished
Structure (SMILES): CNC(=O)c1cc(NC(=O)c2ccc3nc(-c4nc(NC(=O)c5cc(NC(=O)[C@H](N)CCNC(=O)c6cc(NC(=O)c7cc(NC(=O)c8nc(NC(=O)c9nccn9C)cn8C)cn7C)cn6C)cn5C)cn4C)[nH]c3c2)cn1C [E]

- selectivity for A,T over G,C [6]: more than 50 fold
- preference for T•A over A•T [6]: 10 fold
Structure (SMILES): CN(C)CCCNC(=O)CCNC(=O)c1cc(NC(=O)c2cc(NC(=O)c3cc(NC(=O)c4nc(NC(=O)CCCNC(=O)c5cc(NC(=O)c6ccc7nc(-c8nc(NC(=O)c9nccn9C)cn8C)[nH]c7c6O)cn5C)cn4C)cn3C)cn2C)cn1C [G]

- selectivity for A,T over G,C [6]: 13 fold
- preference for T•A over A•T [6]: 2.5 fold
Structure (SMILES): CN(C)CCCNC(=O)CCNC(=O)c1cc(NC(=O)c2cc(NC(=O)c3ccc4nc(-c5nc(NC(=O)CCCNC(=O)c6cc(NC(=O)c7ccc8nc(-c9nc(NC(=O)c%10nccn%10C)cn9C)[nH]c8c7O)cn6C)cn5C)[nH]c4c3)cn2C)cn1C [I]

- selectivity for A,T over G,C [6]: more than 30 fold
- preference for A•T over T•A [6]: more than 4 fold
Structure (SMILES): CN(C)CCCNC(=O)CCNC(=O)c1cc(NC(=O)c2cc(NC(=O)c3ccc4nc(-c5nc(NC(=O)CCCNC(=O)c6cc(NC(=O)c7cc(NC(=O)c8nc(NC(=O)c9nccn9C)cn8C)cn7C)cn6C)cn5C)[nH]c4c3O)cn2C)cn1C [J]

- selectivity for A,T over G,C [6]: 4.5 fold
- Ka (affinity) ([6]; 5′-TGGXCA-3′, 22° C., pH 7.0): high affinity
- preference for A•T over T•A [6]: 2.5 fold
Structure (SMILES): CN(C)CCCNC(=O)CCNC(=O)c1cc(NC(=O)c2cc(NC(=O)c3ccc4nc(-c5nc(NC(=O)CCCNC(=O)c6cc(NC(=O)c7ccc8nc(-c9nc(NC(=O)c%10nccn%10C)cn9C)[nH]c8c7)cn6C)cn5C)[nH]c4c3O)cn2C)cn1C [L]
